Laboratory results as given in patent US9469650B2, “Melampomagnolide B derivatives” (BOARD OF TRUSTEES OF THE UNIVERSITY OF ARKANSAS, priority 2013, dated 2016).

Assays:
[1] = tested on: SF-539; experiment: panel of 60 human tumor cell lines, growth inhibition (CNS Cancer); details: Homo sapiens
[2] = tested on: COLO 205; experiment: panel of 60 human tumor cell lines, growth inhibition (Colon Cancer); details: Homo sapiens
[3] = tested on: ACHN; experiment: panel of 60 human tumor cell lines, growth inhibition (Renal Cancer); details: Homo sapiens
[4] = tested on: NCI-H460; experiment: panel of 60 human tumor cell lines, growth inhibition (Non-Small Cell Lung Cancer); details: Homo sapiens
[5] = tested on: KM12; experiment: panel of 60 human tumor cell lines, growth inhibition (Colon Cancer)
[6] = tested on: NCI-H23; experiment: panel of 60 human tumor cell lines, growth inhibition (Non-Small Cell Lung Cancer); details: Homo sapiens
[7] = tested on: HT29; experiment: panel of 60 human tumor cell lines, growth inhibition (Colon Cancer); details: for Percent Growth: HT29
[8] = tested on: SK-MEL-28; experiment: panel of 60 human tumor cell lines, growth inhibition (Melanoma); details: Homo sapiens
[9] = tested on: MDA-MB-435; experiment: as above; details: Homo sapiens
[10] = tested on: HS 578T; experiment: panel of 60 human tumor cell lines, growth inhibition (Breast Cancer); details: Homo sapiens, Hs-578T
[11] = tested on: TK-10; experiment: panel of 60 human tumor cell lines, growth inhibition (Renal Cancer); details: Homo sapiens; for GI50: TK-10, TK-10
[12] = tested on: MOLT-4; experiment: panel of 60 human tumor cell lines, growth inhibition (Leukemia); details: Homo sapiens
[13] = tested on: MDA-MB-468; experiment: panel of 60 human tumor cell lines, growth inhibition (Breast Cancer); details: Homo sapiens
[14] = tested on: SK-MEL-5; experiment: panel of 60 human tumor cell lines, growth inhibition (Melanoma); details: Homo sapiens
[15] = tested on: SR; experiment: panel of 60 human tumor cell lines, growth inhibition (Leukemia); details: Homo sapiens
[16] = tested on: OVCAR-8; experiment: panel of 60 human tumor cell lines, growth inhibition (Ovarian Cancer); details: Homo sapiens
[17] = tested on: T-47D; experiment: panel of 60 human tumor cell lines, growth inhibition (Breast Cancer); details: Homo sapiens, T47D
[18] = tested on: NCI/ADR-RES; experiment: panel of 60 human tumor cell lines, growth inhibition (Ovarian Cancer); details: Homo sapiens
[19] = tested on: CCRF-CEM; experiment: panel of 60 human tumor cell lines, growth inhibition (Leukemia); details: Homo sapiens

SMILES: C=C1C(=O)O[C@H]2[C@H]1CC/C(COC(=O)NCCN1CCOCC1)=C\CC[C@@]1(C)O[C@@H]21 [JVM 57, ((1aR,7aS,10aS,10bS,E)-1a-methyl-8-methylene-9-oxo-1a,2,3,6,7,7a,8,9,10a,10b-decahydrooxireno[2′,3′:9,10]-cyclodeca[1,2-b]furan-5-yl)-methyl(2-morpholinoethyl)carbamate]
- GI50 ([1]; SF-539): 14.4 µM
- CC50 ([1]; SF-539, read-out: LC50): 55.2 µM
- IC (TGI) ([1]; SF-539, read-out: TGI): 28.2 µM
- GI50 ([2]; COLO 205): 8.89 µM
- CC50 ([2]; COLO 205, read-out: LC50): 71.6 µM
- IC (TGI) ([2]; COLO 205, read-out: TGI): 25.9 µM
- GI50 [3]: 3.74 µM
- CC50 ([3]; read-out: LC50): 44.3 µM
- IC (TGI) ([3]; read-out: TGI): 14.3 µM
- GI50 ([4]; NCI-H460): 27.1 µM
- CC50 ([4]; NCI-H460, read-out: LC50): > 100 µM
- IC (TGI) ([4]; NCI-H460, read-out: TGI): 87.3 µM
- GI50 ([5]; Homo sapiens, KM12): 26.3 µM
- CC50 ([5]; Homo sapiens, KM12, read-out: LC50): > 100 µM
- TGI ([5]; KM12): 7.66E−5
- Percent Growth ([5]; KM12, Log10 Concentration −4.0): −12%
- Percent Growth ([5]; KM12, Log10 Concentration −5.0): 95%
- Percent Growth ([5]; KM12, Log10 Concentration −6.0): 100%
- Percent Growth ([5]; KM12, Log10 Concentration −7.0): 106%
- Percent Growth ([5]; KM12, Log10 Concentration −8.0): 102%
- GI50 ([6]; NCI-H23): 15.8 µM
- CC50 ([6]; NCI-H23, read-out: LC50): 84.3 µM
- IC (TGI) ([6]; NCI-H23, read-out: TGI): 36.5 µM
- Percent Growth ([7]; Log10 Concentration −4.0): −74%
- Percent Growth ([7]; Log10 Concentration −5.0): 43%
- Percent Growth ([7]; Log10 Concentration −6.0): 110%
- Percent Growth ([7]; Log10 Concentration −7.0): 108%
- Percent Growth ([7]; Log10 Concentration −8.0): 102%
- GI50 ([7]; Homo sapiens, HT-29): 7.83 µM
- CC50 ([7]; Homo sapiens, HT-29, read-out: LC50): 62.7 µM
- IC (TGI) ([7]; Homo sapiens, HT-29, read-out: TGI): 23.3 µM
- GI50 ([8]; SK-MEL-28): 10.5 µM
- CC50 ([8]; SK-MEL-28, read-out: LC50): 47.2 µM
- IC (TGI) ([8]; SK-MEL-28, read-out: TGI): 22.2 µM
- GI50 ([9]; MDA-MB-435): 5.89 µM
- CC50 ([9]; MDA-MB-435, read-out: LC50): 66.9 µM
- IC (TGI) ([9]; MDA-MB-435, read-out: TGI): 22 µM
- GI50 [10]: 20.1 µM
- CC50 ([10]; read-out: LC50): > 100 µM
- IC (TGI) ([10]; read-out: TGI): > 100 µM
- GI50 [11]: 3.93 µM
- GI50 ([11]; 5-dose assay): 3.93 µM
- CC50 ([11]; TK-10, read-out: LC50): 38.9 µM
- IC (TGI) ([11]; TK-10, read-out: TGI): 13.9 µM
- GI50 ([12]; MOLT-4): 5 µM
- CC50 ([12]; MOLT-4, read-out: LC50): > 100 µM
- IC (TGI) ([12]; MOLT-4, read-out: TGI): 22.9 µM
- GI50 ([13]; MDA-MB-468): 3.26 µM
- CC50 ([13]; MDA-MB-468, read-out: LC50): 59.1 µM
- IC (TGI) ([13]; MDA-MB-468, read-out: TGI): 14.6 µM
- GI50 ([14]; SK-MEL-5): 12.7 µM
- CC50 ([14]; SK-MEL-5, read-out: LC50): 50.9 µM
- IC (TGI) ([14]; SK-MEL-5, read-out: TGI): 25.4 µM
- GI50 [15]: 3.65 µM
- CC50 ([15]; read-out: LC50): > 100 µM
- IC (TGI) ([15]; read-out: TGI): 25.1 µM
- GI50 ([16]; OVCAR-8): 12.7 µM
- CC50 ([16]; OVCAR-8, read-out: LC50): > 100 µM
- IC (TGI) ([16]; OVCAR-8, read-out: TGI): 36.8 µM
- GI50 [17]: 6.32 µM
- CC50 ([17]; read-out: LC50): 71.5 µM
- IC (TGI) ([17]; read-out: TGI): 23.2 µM
- GI50 [18]: 52.3 µM
- CC50 ([18]; read-out: LC50): > 100 µM
- IC (TGI) ([18]; read-out: TGI): > 100 µM
- GI50 [19]: 3.03 µM
- GI50 ([19]; 5-dose assay): 3.03 µM
- CC50 ([19]; read-out: LC50): ≥ 109 µM
- IC (TGI) ([19]; read-out: TGI): 11.6 µM
